Test results taken from patent US12570612B2, “Substituted nitrogen heterocyclic compound and anesthetic effect thereof” (priority 2019, dated 2026).

Tests used:
Assay type in all cases: in vivo
Sprague-Dawley rats [1] = details: tail vein
Sprague-Dawley rats [2] = assay: animal or person; details: rats; for ED50: Rattus norvegicus, LORR, up and down method, tail vein, class symbols, read-out: ED50
From the text: Evaluating indicator: The end point of anesthesia: LORR was used as the end point of anesthesia; General anesthesia effect: the disappearance of forepaw righting reflex in rats lasting for 30 seconds is taken as the index of general anesthesia effect; Anesthesia recovery index: the recovery of rat forepaw righting reflex was used as the index of anesthesia recovery.

Sprague-Dawley rats [3] = assay: Pharmacological effect and adverse reactions under the equivalent dose (2ED50), Group C compounds; details: for Righting reflex duration / Sedation duration / Onset time: 2ED50, tail vein, rats, n=8; for Adverse reaction: Convulsions / Adverse reaction: Cough, broken-winded / Adverse reaction: Euphoria / Adverse reaction: Red urine / Adverse reaction: Slower breathing, Tetany convulsion / Adverse reaction: Systemic stiffness, Convulsions, Opisthotonus / Adverse reaction: Tongue stretching / Adverse reaction: Tremor / Adverse reaction: the four limbs rigidity: equivalent dose (2ED50), number of rats of n = 8
From the text: Evaluation index: onset time: from the completion of drug injection to the disappearance of forepaw righting reflex in rats; Duration of anesthesia: the time from the disappearance of rat forepaw righting reflex to the recovery of rat forepaw righting reflex; Recovery time of anesthesia: the time from the […] to complete recovery;

Compound | Minimal lethal dose (Sprague-Dawley rats [1]) | Approximate therapeutic index (Sprague-Dawley rats [2]) | Righting reflex duration (Sprague-Dawley rats [3]) | Sedation duration (Sprague-Dawley rats [3]) | Onset time (Sprague-Dawley rats [3]; unit s) | Adverse reaction: Convulsions (Sprague-Dawley rats [3]) | Adverse reaction: Cough, broken-winded (Sprague-Dawley rats [3]) | Adverse reaction: Euphoria (Sprague-Dawley rats [3]) | Adverse reaction: Red urine (Sprague-Dawley rats [3]) | Adverse reaction: Slower breathing, Tetany convulsion (Sprague-Dawley rats [3]) | Adverse reaction: Systemic stiffness, Convulsions, Opisthotonus (Sprague-Dawley rats [3]) | Adverse reaction: Tongue stretching (Sprague-Dawley rats [3]) | Adverse reaction: Tremor (Sprague-Dawley rats [3]) | Adverse reaction: the four limbs rigidity (Sprague-Dawley rats [3]) | ED50 (Sprague-Dawley rats [2]) | Onset time (Sprague-Dawley rats [3]; unit min)
C[C@H](c1ccccc1)n1cncc1C(=O)COC1CCC1 [Compound C28] | >11.8 mg/kg | >2.4 | 1.91 ± 0.65 min | 5.63 ± 0.62 min | <30 s | 0 | 0 | 0 | 8 | 0 | 0 | 0 | 1 | 0 |  | 
COCC(=O)c1cncn1[C@H](C)c1ccccc1 [Compound C33] | >14.2 mg/kg | >2.8 | 1.62 ± 0.85 min | 4.43 ± 0.92 min | <30 s | 0 | 0 | 0 | 8 | 0 | 0 | 0 | 1 | 0 |  | 
C#CCOCC(=O)c1cncn1[C@H](C)c1ccccc1 [Compound C35] | >10.3 mg/kg | >12.9 | 2.26 ± 0.81 min | 4.89 ± 0.98 min | <30 s | 0 | 0 | 0 | 8 | 0 | 7 | 1 | 0 | 0 | 0.5 to 1 mg/kg | 
CCC(CC)OCC(=O)c1cncn1[C@H](C)c1ccccc1 [Compound C36] | >15.2 mg/kg | >3.0 | 4.02 ± 1.09 min | 15.57 ± 4.94 min | <30 s | 0 | 0 | 0 | 8 | 0 | 0 | 0 | 0 | 3 | 2 to 10 mg/kg | 
C[C@H](c1ccccc1)n1cncc1C(=O)COC(C)(C)C [Compound C45] | >10.8 mg/kg | >2.2 | 3.00 ± 1.02 min | 7.74 ± 0.85 min | <30 s | 0 | 0 | 0 | 8 | 0 | 7 | 0 | 0 | 1 |  | 
C[C@H](c1ccccc1)n1cncc1C(=O)COCC1CC1 [Compound C46] | >11.8 mg/kg | >2.4 | 1.82 ± 0.64 min | 5.63 ± 1.52 min | <30 s | 0 | 0 | 0 | 8 | 0 | 0 | 1 | 1 | 0 | 2 to 10 mg/kg | 
CC(=O)COCC(=O)c1cncn1[C@H](C)c1ccccc1 [Compound C51] | >12.5 mg/kg | >8.3 | 2.89 ± 0.68 min | 4.62 ± 1.02 min | <30 s | 0 | 0 | 0 | 8 | 0 | 0 | 0 | 2 | 0 | 1 to 2 mg/kg | 
C/C=C\C(=O)c1cncn1[C@H](C)c1ccccc1 [Compound C55] | >13.61 mg/kg | >16.6 | 1.83 ± 0.30 min | 6.26 ± 2.45 min | <30 s | 0 | 0 | 0 | 8 | 0 | 7 | 0 | 0 | 0 | 2 to 10 mg/kg | 
CC1OC1C(=O)c1cncn1[C@H](C)c1ccccc1 (stereo partly drawn) [Compound C56] | >13.61 mg/kg | >16.6 | 1.49 ± 0.62 min | 5.32 ± 1.21 min |  | 0 | 0 | 0 | 8 | 0 | 0 | 1 | 1 | 0 | 2 to 10 mg/kg | <60 s
CC#CCC(=O)c1cncn1[C@H](C)c1ccccc1 [Compound C57] | >13.61 mg/kg | >16.6 | 1.89 ± 0.29 min | 6.12 ± 1.14 min |  | 0 | 0 | 0 | 8 | 0 | 0 | 2 | 1 | 0 | 2 to 10 mg/kg | <60 s
CC#CCOCC(=O)c1c(F)ncn1[C@H](C)c1ccccc1 [Compound C69] | >4.2 mg/kg | >19.2 | 1.91 ± 0.68 min | 6.28 ± 1.62 min | <30 s | 0 | 0 | 0 | 8 | 0 | 1 | 0 | 0 | 0 | 0.04 to 0.5 mg/kg | 
